# Assays:
# BMDM [1] = test: extracellular (cell-free) mtDNA released by donor BMDM; format: cell-based, mouse; details: for amount of DNA released by LPS-primed donor BMDM challenged with the NLRP3 activator: 1500,000 donor cells per group, LPS-primed only approximately 0.1 μg
# Description: Extracellular DNA of donor macrophages (1500,000 cells per group) was isolated using QIAamp Circulating Nucleic Acid Kit according to manufacturer's instructions and then eluted in 300 μL distilled H2O and quantified using spectrophotometric analysis at 260/280 nm with Nanodrop. […] Applicant used 5% of the prepared DNA for qPCR measurement of extracellular mtDNA and the remaining 95% were added to the recipient BMDM for analyzing the paracrine immunostimulatory effects.
# mPTP = test: calcein-quenching assay for mPTP opening in BMDM; format: cell-based; details: for induction of mPTP opening by mtROS generator: LPS-primed BMDM, DMNQ 20 μM 16 hrs or MitoParaquat 5 μM 1 hr; for mPTP opening (calcein fluorescence): BMDM pretreated 16 h (CsA 1 μM, VBIT-4 10 μM, RuR 10 μM), LPS-primed, ATP or nigericin 1 h
# Description: (§2) Bone marrow cells were cultured in high glucose DMEM supplemented with 10% FBS, 20% L929-cell conditioned medium, and 100 U/mL penicillin-streptomycin for 7-10 days at 37° C. with 5% CO2 (Hornung et al., 2008).
# (§3) Mitochondrial membrane potential was measured using TMRM according to manufacturer's instructions. Briefly, BMDM were primed or not with LPS for 4 h, and further stimulated with ATP or nigericin for 60 minutes. Cells were incubated with 200 nM TMRM for 30 minutes at 37° C. After washing twice, fluorescence intensity was determined per manufacturer's instructions using a FilterMax F5 multimode plate reader (Molecular Devices). Mitochondrial reactive oxygen species (mtROS) were measured using MitoSOX (Invitrogen) as described (Xian et al., 2021). BMDM treated as indicated were loaded with 4 μM MitoSOX for 20 minutes. After washing with PBS twice, cells were resuspended in PBS and counted. Equal numbers of cells from different treatment groups were then plated onto 96-well plates for fluorescence reading. To quantify [Ca^2+]m by 5 μM Rhod-2 or intracellular Ca^2+ intensity by 1 μM Fluo-4, BMDM treated as indicated were loaded with the respective dyes according to manufacturer's instructions for 30 minutes. After washing twice, fluorescence intensity was determined using a FilterMax F5 multimode plate reader (Molecular Devices). To analyze mPTP opening by calcein-quenching assay, BMDM treated as indicated were loaded with calcein at 2 μM and CoCl2 at 160 μM for 30 minutes at 37° C. according to manufacturer's instructions. After washing twice, fluorescence intensity was determined per with a FilterMax F5 multimode plate reader (Molecular Devices).
# BMDM [2] = test: 8-OH-dG content of mtDNA from mitochondria of BMDM; details: for mtDNA oxidation caused by mtROS generator: LPS-primed BMDM, DMNQ 20 μM 16 hrs or MitoParaquat 5 μM 1 hr
# Description: as §2
# (§4) BMDM were stimulated as indicated. […] Briefly, BMDM were washed with PBS and harvested, 10% of which were saved for DNA extraction of whole cells. The remaining BMDM resuspended with pre-chilled mitochondrial extraction buffer 1 (220 mM mannitol, 70 mM sucrose, 20 mM HEPES-KOH, pH 7.5, 1 mM EDTA and 2 mg/mL bovine serum albumin) supplemented with a protease inhibitor cocktail and a phosphatase inhibitor cocktail were passed through a 25-G syringe (BD Biosciences) 20 times on ice. The homogenized cells were centrifuged at 1000×g for 15 minutes at 4° C. The supernatant was further centrifuged at 10,000×g for 10 minutes at 4° C. to pellet the mitochondria from supernatant cytosolic fraction. qPCR was performed after DNA purification with AllPrep DNA/RNA Mini Kit according to manufacturer's instructions, from both whole cell extracts and cytosolic fractions using mtDNA primers (D-loop, Cox1, non-NUMT), or after DNA purification from whole cell extracts using nuclear DNA primers (Tert, 18S, B2m). The Ct values obtained for mtDNA abundance in whole cell extracts served as normalization controls for the mtDNA values obtained from the cytosolic fractions. For the measurement of Ox-mtDNA, purified mtDNA was extracted from the cytosolic or mitochondrial fractions as indicated. The 8-OH-dG content was then quantified using 8-hydroxy 2-deoxyguanosine ELISA Kit, per manufacturer's instructions.
# VDAC = VDAC cross-linking assay (VDAC oligomerization) in BMDM; format: cell-based, mouse; details: LPS-primed BMDM; for induction of VDAC oligomerization by mtROS generator: DMNQ 20 μM 16 hrs or MitoParaquat 5 μM 1 hr; for VDAC oligomerization induced by NLRP3 activator: compound pretreatment 16 h (VBIT-4 10 μM, CsA 1 μM, RuR 10 μM), ATP 4 mM or nigericin 10 μM 1 h
# Description: BMDM treated as indicated were washed and collected in PBS, incubated for 40 min at 30° C. with the cross-linking reagent EGS (200 μM). Samples were subjected to SDS-PAGE and IB analyzed with anti-VDAC antibody.
# BMDM [3] = test: mtROS (MitoSOX) in BMDM; details: LPS-primed BMDM; for mtROS generated by the compound itself: DMNQ 20 μM 16 hrs or MitoParaquat 5 μM 1 hr, compared with ATP
# Description: as §2, §3
# BMDM [4] = test: cytosolic Ox-mtDNA (8-OH-dG ELISA of cytosolic mtDNA) in BMDM; format: cell-based, mouse; details: for induction of Ox-mtDNA cytosolic release by mtROS generator: DMNQ 20 μM 16 hrs or MitoParaquat 5 μM 1 hr
# Description: as §2, §4
# NLRP3 inflammasome = NLRP3 inflammasome activation (Casp1 p20 and mature IL-1β, IB and ELISA) in BMDM; format: cell-based, mouse; details: for activation of NLRP3 inflammasome by mtROS generator: BMDM −/+ LPS priming, DMNQ or MitoParaquat; for NLRP3 inflammasome activation (Casp1 activation and mature IL-1β secretion): LPS-primed BMDM, compound pretreatment 16 h, challenged with NLRP3 activators
# Excerpt: (§1) Paired antibodies (capture and detection) and standard recombinant mouse IL-1β and TNF were used to determine mouse cytokine concentrations according to manufacturer's instructions.
# BMDM [5] = test: cytosolic mtDNA (qPCR after cellular fractionation) in BMDM; format: cell-based, mouse; details: for induction of mtDNA cytosolic release by mtROS generator: DMNQ 20 μM 16 hrs or MitoParaquat 5 μM 1 hr
# Description: as §2, §4
# BMDM [6] = test: stimulation of naive recipient BMDM by cell-free mtDNA (cytokine and ISG mRNA, qPCR); format: cell-based, mouse
# Description: RNA was extracted using AllPrep DNA/RNA Mini kit, and cDNA was synthesized using SuperScript™ VILO™ cDNA Synthesis Kit. mRNA expression was determined by QPCR in a CFX96 thermal cycler (Biorad) as described (Xian et al., 2021). Data are presented in arbitrary units and calculated by the 2^(−ΔΔCT) method. Primer sequences were obtained from the NIH qPrimerDepot (http://mouseprimerdepot.nci.nih.gov) and provided by Integrated DNA technologies.
# Extracellular DNA of donor macrophages (1500,000 cells per group) was isolated using QIAamp Circulating Nucleic Acid Kit according to manufacturer's instructions and then eluted in 300 μL distilled H2O and quantified using spectrophotometric analysis at 260/280 nm with Nanodrop. DNA amounts purified among the different treatment groups vary. The DNA amount secreted from LPS-primed donor BMDM is low, approximately at 0.1 μg. The amount of DNA released by LPS-primed donor BMDM challenged with ATP is about 1.3 μg, while the amount of DNA released by LPS-primed donor BMDM challenged with nigericin is around 2 μg. The amount of DNA secreted by LPS-primed donor BMDM challenged with MSU or alum is about 0.7 μg. Applicant used 5% of the prepared DNA for qPCR measurement of extracellular mtDNA and the remaining 95% were added to the recipient BMDM for analyzing the paracrine immunostimulatory effects.
# TNF = TNF secretion by BMDM (ELISA); format: cell-based, mouse; details: compound pretreatment 16 h, LPS priming, NLRP3 activators
# Excerpt: as §1
# BMDM [7] = test: mitochondrial Ca2+ ([Ca^2+]m, Rhod-2) in BMDM; format: cell-based, mouse; details: LPS-primed BMDM, XeC 5 μM or RuR 10 μM 16 h
# Description: After washing, BMDM were kept in the incubator for additional 30 minutes before confocal imaging (Nikon CSU-X1 Spinning Disk). Dynamic [Ca^2+]m images were captured at 10 seconds intervals for 4 minutes, with the addition of NLRP3 agonist at 40 seconds.
# BMDM [8] = test: total mtDNA (LPS-stimulated mtDNA synthesis, qPCR) in BMDM; format: cell-based, mouse; details: compound 10 μM 16 h, before or after LPS priming
# Excerpt: Nuclear DNA encoding telomerase reverse transcriptase (Tert), 18S ribosomal RNA and β2 microglobulin (B2m) was used for normalization.
# [9] = test system: NLRP3, pro-IL-1β, pro-casp1 and ASC; test: immunoblot of NLRP3 inflammasome component expression in BMDM lysates; format: cell-based, mouse; details: BMDM lysates before and after LPS priming, compound pretreatment 16 h
# BMDM [10] = test: mitochondrial membrane potential (TMRM) in BMDM; format: cell-based, mouse; details: BMDM incubated with CsA or VBIT-4
# Description: as §2
# (§5) Mitochondrial membrane potential was measured using TMRM according to manufacturer's instructions. Briefly, BMDM were primed or not with LPS for 4 h, and further stimulated with ATP or nigericin for 60 minutes. Cells were incubated with 200 nM TMRM for 30 minutes at 37° C. After washing twice, fluorescence intensity was determined per manufacturer's instructions using a FilterMax F5 multimode plate reader (Molecular Devices). Mitochondrial reactive oxygen species (mtROS) were measured using MitoSOX (Invitrogen) as described (Xian et al., 2021). […] After washing with PBS twice, cells were resuspended in PBS and counted. Equal numbers of cells from different treatment groups were then plated onto 96-well plates for fluorescence reading. To quantify [Ca^2+]m by 5 μM Rhod-2 or intracellular Ca^2+ intensity by 1 μM Fluo-4, BMDM treated as indicated were loaded with the respective dyes according to manufacturer's instructions for 30 minutes. After washing twice, fluorescence intensity was determined using a FilterMax F5 multimode plate reader (Molecular Devices). […] After washing twice, fluorescence intensity was determined per with a FilterMax F5 multimode plate reader (Molecular Devices).
# STING = STING Ser365 phosphorylation (puncta by immunofluorescence, immunoblot) in BMDM; details: CsA 1 μM, VBIT-4 10 μM or FEN1-IN-4 10 μM 16 hrs
# Description: as §2
# Whole cell lysates were prepared in RIPA buffer (25 mM Tris-HCl pH 7.6, 150 mM NaCl, 1% NP-40, 1% sodium deoxycholate, 0.1% SDS) containing a protease inhibitor cocktail and a phosphatase inhibitor cocktail. Protein concentrations were determined using BCA Protein Assay Kit. Equal amounts of protein were separated by SDS-PAGE and transferred onto PVDF membranes, blocked in 5% BSA in 1×TBST for 1 h and incubated with primary antibodies overnight. Secondary antibodies were added for 1 h and detection was performed using Clarity Western ECL Substrate.
# (§6) BMDM were fixed in 4% paraformaldehyde (PFA), permeabilized in 0.2% Triton X-100,and blocked in 1×PBS supplemented with 3% BSA. […] Nuclei were counterstained with DAPI.
# ASC = ASC speck formation (immunofluorescence) in BMDM
# BMDM [11] = test: Ox-mtDNA and mtDNA in the intermembrane space (proteinase K digested mitochondria); details: supernatant of proteinase K digested mitochondria from treated BMDM
# Description: To dissect the roles of VDAC oligomerization and mPTP in mtDNA escape, Applicant investigated whether Ox-mtDNA and mtDNA were trapped in the mitochondrial intermembrane space (IMS) of VBIT-4 treated BMDM. […] Using this method (FIG. 2F), Applicant measured relative Ox-mtDNA and mtDNA amounts in the IMS.
# BMDM were stimulated as indicated. Cellular fractionation was carried out as previously described (Xian and Liou, 2019; Xian et al., 2019). Briefly, BMDM were washed with PBS and harvested, 10% of which were saved for DNA extraction of whole cells. The remaining BMDM resuspended with pre-chilled mitochondrial extraction buffer 1 (220 mM mannitol, 70 mM sucrose, 20 mM HEPES-KOH, pH 7.5, 1 mM EDTA and 2 mg/mL bovine serum albumin) supplemented with a protease inhibitor cocktail and a phosphatase inhibitor cocktail were passed through a 25-G syringe (BD Biosciences) 20 times on ice. The homogenized cells were centrifuged at 1000×g for 15 minutes at 4° C. […] The 8-OH-dG content was then quantified using 8-hydroxy 2-deoxyguanosine ELISA Kit, per manufacturer's instructions.
# BMDM [12] = test: cytosolic Ca2+ (Fluo-4) in BMDM; format: cell-based, mouse; details: XeC 5 μM 16 h, ATP challenge
# Description: as §2, §5
# BMDM [13] = test: cytochrome C release (immunofluorescence) in BMDM; format: cell-based, mouse; details: BMDM treated with etoposide (positive control)
# Description: as §2, §6
# [14] = LPS-primed BMDM, compound 10 μM 16 h, ATP 4 mM 1 h
# [15] = LPS-primed shCtrl or shOgg1 BMDM, CsA 1 μM or VBIT-4 10 μM 16 h, ATP 4 mM 1 h
smiles,measurement,setting,value
"Nc1ncnc2c1ncn2[C@@H]1O[C@H](COP(=O)(O)OP(=O)(O)OP(=O)(O)O)[C@@H](O)[C@H]1O [ATP, adenosine triphosphate]",amount of DNA released by LPS-primed donor BMDM challenged with the NLRP3 activator,BMDM [1],about 1.3 μg
COC1=C(OC)C(=O)c2ccccc2C1=O [DMNQ],induction of mPTP opening by mtROS generator,mPTP,neither compound induced
same,mtDNA oxidation caused by mtROS generator,BMDM [2],augmented
same,induction of VDAC oligomerization by mtROS generator,VDAC,neither compound induced
same,mtROS generated by the compound itself,BMDM [3],as much mtROS as ATP
same,induction of Ox-mtDNA cytosolic release by mtROS generator,BMDM [4]; LPS-primed BMDM,neither compound induced
same,activation of NLRP3 inflammasome by mtROS generator,NLRP3 inflammasome,neither mtROS generator activated
same,induction of mtDNA cytosolic release by mtROS generator,BMDM [5]; LPS-primed BMDM,neither compound induced
"O=c1[nH]c(=O)c2[nH]c([O-])nc2[nH]1.[Na+] [MSU, monosodium urate]",amount of DNA released by LPS-primed donor BMDM challenged with the NLRP3 activator,BMDM [1],about 0.7 μg
O=C1NC(=NS(=O)(=O)c2cccc3ccccc23)S/C1=C\c1ccc(Br)cc1 [Pitstop2],cytokine mRNA induction by extracellular mtDNA,"BMDM [6]; recipient BMDM with Pitstop 2 (2 uM), 24 hrs with extracellular DNA",diminish
"N.N.N.N.N.N.N.N.N.N.N.N.N.N.[Cl-].[Cl-].[Cl-].[Cl-].[Cl-].[Cl-].[O-2].[O-2].[Ru+3].[Ru+3].[Ru+4] [RuR, ruthenium red]",TNF secretion,TNF,no effect
same,mPTP opening (calcein fluorescence),mPTP,blocked
same,VDAC oligomerization induced by NLRP3 activator,VDAC,blocked
same,ATP- or nigericin-induced [Ca^2+]m pulse (Rhod-2 fluorescence),BMDM [7],disrupted
same,LPS-stimulated mtDNA synthesis (total mtDNA),BMDM [8],did not inhibit
same,"NLRP3, pro-IL-1β, pro-casp1 and ASC expression",[9],no effect
same,cytosolic Ox-mtDNA (release),BMDM [4]; [14],reducing
same,NLRP3 inflammasome activation (Casp1 activation and mature IL-1β secretion),NLRP3 inflammasome,suppressed
same,cytosolic mtDNA release,BMDM [5]; [14],reducing
O=C(CC(CO)N1CCN(c2ccc(OC(F)(F)F)cc2)CC1)Nc1ccc(Cl)cc1 (stereo not drawn) [VBIT-4],TNF secretion,TNF,without affecting
same,cell-free mtDNA release,"BMDM [1]; LPS-primed donor BMDM pretreated with compound, challenged with ATP or nigericin",inhibited
same,mitochondrial depolarization upon NLRP3 activator challenge,BMDM [10],abrogated
same,mPTP opening (calcein fluorescence),mPTP,little effect on calcein fluorescence
same,reduction of mtDNA oxidation (8-OH-dG in mitochondrial mtDNA),"BMDM [2]; LPS-primed BMDM pretreated with CsA or VBIT-4 16 h, ATP stimulation",45±5.0%
same,formation of Ser^365 phosphorylated STING puncta,"STING; LPS-primed BMDM, ATP or nigericin",diminished
same,ATP-induced STING Ser^365 phosphorylation (immunoblot) in Nlrp3−/− BMDM,"STING; LPS-primed Nlrp3−/− BMDM, ATP",completely blocked
same,immunostimulatory activity of DNA secreted by treated donor BMDM,"BMDM [6]; recipient BMDM incubated 24 h with DNA from compound-pretreated donor BMDM, cytokine and ISG mRNAs",inhibited
same,VDAC oligomerization induced by NLRP3 activator,VDAC,blocked
same,ASC speck formation,"ASC; BMDM, VBIT-4 10 μM 16 h, LPS-primed, ATP or nigericin 1 h",inhibited
same,mtROS production,"BMDM [3]; compound pretreatment 16 h, ATP or nigericin",modest decline
same,"NLRP3, pro-IL-1β, pro-casp1 and ASC expression",[9],without affecting
same,reduction of cytosolic pool of Ox-mtDNA,BMDM [4]; [15],81±4%
same,NLRP3 inflammasome activation (Casp1 activation and mature IL-1β secretion),NLRP3 inflammasome,inhibited
same,amount of Ox-mtDNA within the IMS,BMDM [11],elevated
same,amount of mtDNA (different regions of the genome) within the IMS,BMDM [11],elevated
same,reduction of cytosolic pool of mtDNA,BMDM [5]; [15],50-60%
"C1CCC[C@H]2CCCN3CC[C@@H](CCCCCC[C@@H]4CCCN5CC[C@@H](CC1)O[C@@H]45)O[C@@H]23 [XeC, xestospongin C]",cytosolic Ca^2+ (Fluo-4 fluorescence),BMDM [12],decreased
same,ATP- or nigericin-induced [Ca^2+]m pulse (Rhod-2 fluorescence),BMDM [7],had no effect
COc1cc([C@@H]2c3cc4c(cc3[C@@H](O[C@@H]3O[C@@H]5CO[C@@H](C)O[C@H]5[C@H](O)[C@H]3O)[C@H]3COC(=O)[C@H]23)OCO4)cc(OC)c1O [etoposide],cytochrome C release,BMDM [13],induced cytochrome C release
same,ASC speck formation triggered by apoptosis inducer,ASC; BMDM treated with etoposide,did not trigger
C[n+]1ccc(-c2cc[n+](CCCCCCCCCC[P+](c3ccccc3)(c3ccccc3)c3ccccc3)cc2)cc1.[I-].[I-].[I-] [mitoParaquat],induction of mPTP opening by mtROS generator,mPTP,neither compound induced
same,mtDNA oxidation caused by mtROS generator,BMDM [2],augmented
same,induction of VDAC oligomerization by mtROS generator,VDAC,neither compound induced
same,mtROS generated by the compound itself,BMDM [3],as much mtROS as ATP
same,induction of Ox-mtDNA cytosolic release by mtROS generator,BMDM [4]; LPS-primed BMDM,neither compound induced
same,activation of NLRP3 inflammasome by mtROS generator,NLRP3 inflammasome,neither mtROS generator activated
same,induction of mtDNA cytosolic release by mtROS generator,BMDM [5]; LPS-primed BMDM,neither compound induced
CO[C@@H]1C[C@@H](C[C@H]2CC[C@H](C)[C@H]([C@@H](C)C(=O)O)O2)O[C@]2(O[C@](C)([C@H]3CC[C@@](C)([C@@H]4O[C@@H]([C@H]5O[C@@](O)(CO)[C@H](C)C[C@@H]5C)C[C@@H]4C)O3)C[C@H]2C)[C@@H]1C [nigericin],amount of DNA released by LPS-primed donor BMDM challenged with the NLRP3 activator,BMDM [1],around 2 μg

# Source: US20250064808A1, “METHODS FOR THE TREATMENT OF NLRP3 RELATED DISORDERS” (priority 2022, published 2025)
